From patent US9187396B2, “Compositions and methods for the treatment of glomerulonephritis” (Avexxin AS, priority 2009, dated 2015)

Legend:
rat IIA-sPLA2 promoter = test: sPLA2 promoter activity, luciferase reporter gene assay; assay type: cell-based; conditions: IL-1β (1 nM) plus 10 μM compound, 24 h
Procedure: (§1) FIGS. 2A to 2C show the effect of the inhibitors of the examples on cytokine-stimulated sPLA2 protein (FIG. 2A) and mRNA (FIG. 2B) expression and promoter activity in mesangial cells. Quiescent cells were stimulated with either DMEM (−), or IL-1β (1 nM) in the absence (−) or presence of AKH-217 (etOH), vehicle control. In FIG. 2A, supernatants were taken for protein precipitation and precipitated proteins were separated by SDS-PAGE and subjected to a Western blot analysis using a monoclonal antibody against rat sPLA2. […] In FIG. 2B, cells were taken for RNA extraction and subjected to quantitative PCR analysis of rat IIA-sPLA2 and 18 S RNA. ΔΔCt values were calculated and results are expressed as % of maximal IL-1β-stimulated response and are means+S.D. (n=3). In FIG. 2C, cells were transfected with the sPLA2 promoter construct plus a plasmid coding for the Renilla luciferase. After transfection, cells were stimulated for 24 h with vehicle (−), IL-1β (1 nM), or IL-1β plus 10 μM of AKH-217. sPLA2 promoter activity was calculated and results are expressed as relative luciferase units (RLU) and are means±S.D. (n=3).
(§2) It has been previously shown that the cytokine-induced PGE2 formation in mesangial cells involves both sPLA2 and cPLA2 activation (Pfeilschifter et al., 1993), we then investigated the effect of the inhibitors above on sPLA2 protein and mRNA expressions. […]

[1] = tested on: IIA-sPLA2 mRNA expression in mesangial cells; test: cytokine-stimulated IIA-sPLA2 mRNA expression, quantitative PCR; assay type: cell-based, rat; conditions: IL-1β (1 nM)
Procedure: as §1, §2

[2] = tested on: Nitric oxide (NO) formation in rat renal mesangial cells; test: cytokine-stimulated NO formation in mesangial cells (Griess Reaction assay); assay type: cell-based; conditions: IL-1β (1 nM), supernatant
Procedure: Quiescent cells were stimulated with either DMEM (−), IL-1β (1 nM; +), in the absence or presence of the indicated concentrations of AKH-217, AVX002, or AACOCF3. Supernatants were collected and taken for nitric oxide (NO) quantification by using a Griess Reaction assay. Data are expressed as μM of NO in the supernatant and are means±S.D. (n=3).
To see whether this effect is due to altered gene transcription of iNOS, luciferase reporter gene assays were performed to measure iNOS promoter activity. A 4.5 kb fragment of the rat iNOS promoter was kindly provided by Dr. K. F. Beck (pharmazentrum frankfurt).

[3] = tested on: IIA-sPLA2 protein expression in mesangial cells; test: cytokine-stimulated sPLA2 protein expression and secretion, Western blot; assay type: cell-based, rat; conditions: IL-1β (1 nM), supernatants
Procedure: as §1, §2

mesangial cells = test: [3H]thymidine incorporation in mesangial cells (proliferation); assay type: cell-based, rat; conditions: insulin (100 ng/ml), IGF (50 ng/ml) or ATP (100 μM), 24 h
Procedure: FIGS. 5A and 5B show the effect of the inhibitors of the examples on [^3H]thymidine incorporation in mesangial cells. In FIG. 5A, quiescent cells were stimulated for 24 h with vehicle (DMEM), or 100 μM of ATP in the absence (−) or presence of the indicated concentrations of AVX001 or AVX002, in the presence of [^3H]thymidine. In FIG. 5B, cells were stimulated for 24 h with insulin (100 ng/ml) or IGF (50 ng/ml) in the absence (−) or presence of 10 μM of AVX001 or AVX002, in the presence of [^3H]thymidine. Thymidine incorporated into DNA was determined and results are expressed as % of control and are means±S.D. (n=3). Glomerulonephritis is characterized in a first early phase by increased mesangial apoptosis which in a second phase is replaced by an opposite event, i.e. hyperproliferation of mesangial cells. Many previous studies have shown that quiescent mesangial cells in culture can re-enter the cell cycle when exposed to various growth factors, including PDGF, insulin, insulin-like growth factor (IGF), or extracellular nucleotides such as ATP and UTP. […] In the presence of either AKH217 or AVX002, agonist-stimulated [^3H]thymidine incorporation is reduced (FIGS. 5A and 5B). Similar data were also obtained when cells were stimulated with PDGF.

rat iNOS promoter = test: iNOS promoter activity, luciferase reporter gene assay; assay type: cell-based; conditions: IL-1β (1 nM) plus 10 μM compound
Procedure: (§3) FIGS. 4A to 4C show the effect of the inhibitors of the examples on cytokine-stimulated iNOS protein (FIG. 4A) and mRNA (FIG. 4B) expression and promoter activity in mesangiai cells. Quiescent cells were stimulated with either vehicle (DMEM), IL-1β (1 nM), in the absence (−) or presence of the indicated concentrations (in μM) of AVX001 and AVX002. EtOH, vehicle control. In FIG. 4A, cells were taken for protein extraction and equal amount of. protein were separated by SDS-PAGE and subjected to a Western blot analysis using a polyclonal antibody against iNOS at a dilution of 1:2000. Data are representative of at least 3 independent experiments giving similar results. In FIG. 4B, cells were taken for RNA extraction and subjected to quantitative PCR analysis of rat iNOS and 18 S RNA. ΔΔCt values were calculated and results are expressed as % of maximal IL-1β response and are means±S.D (n=3). In FIG. 4C, cells were transfected with the rat iNOS promoter construct plus a plasmid coding for the Renilla luciferase. After transfection, cells were stimulated with vehicle (−), IL-1β (1 nM), or IL-1β plus 10 μM of AVX001. iNOS promoter activity was calculated and results are expressed as relative luciferase units (RLU) and are means±S.D.(n=3).
(§4) To see whether this effect is due to altered gene transcription of iNOS, luciferase reporter gene assays were performed to measure iNOS promoter activity. […]

[4] = tested on: iNOS protein expression in mesangial cells; test: cytokine-stimulated iNOS protein expression, Western blot; assay type: cell-based, rat; conditions: IL-1β (1 nM)
Procedure: as §3, §4

phospho-p65 (NFκB) = test: IL-1β-stimulated NFκB activation, phospho-p65 Western blot; assay type: cell-based, rat; conditions: IL-1β (2 nM) 30 min, 10 μM compound pretreated 2 h
Procedure: FIGS. 6A to 6C show the effect of the inhibitors of the examples on IL-1β-stimulated NFκB activation in mesangial cells. In FIG. 6A, quiescent cells were stimulated for 30 min with either vehicle (DMEM), or IL-1β (2 nM) in the absence (−) or presence (+) of AVX001 or AVX002 (10 μM, pretreated 2 h). Thereafter, cell lysates were separated by SDS-PAGE and subjected to a Western blot analysis using a polyclonal antibody against phospho-p65 (NFκB) (upper panel), HuR as a loading control (middle panel), and IκB (lower panel). Data in FIG. 6A show duplicates of one representative experiments. FIGS. 6B and 6C show the densitometric evaluation of NFkB and IkB bands.
NFkB activation was measured by Western blot analyses by detecting the amount of phospho-p65 which represents the active transcription factor subunit.

Compound: CC/C=C\C/C=C\C/C=C\C/C=C\CC/C=C/CSCC(=O)C(F)(F)F [AKH-217]
- effect on IL-1β-stimulated sPLA2 promoter activity (rat IIA-sPLA2 promoter): completely reduced
- effect on IIA-sPLA2 mRNA expression [1]: able to reduce
- effect on IL-1β-stimulated NO formation [2]: reduced in a dose-dependent manner
- effect on IIA-sPLA2 protein expression and secretion [3]: able to reduce
- effect on agonist-stimulated [3H]thymidine incorporation (mesangial cells): reduced
- effect on IL-1β-stimulated iNOS promoter activity (rat iNOS promoter): completely lost
- effect on IL-1β-induced iNOS protein expression [4]: down-regulated
- effect on IL-1β-induced increase of phospho-p65 (phospho-p65 (NFκB)): reduced
